Source: patent US20030175769A1, “Reagents for improved PCR” (priority 2001, published 2003)

Legend:
[1] = system: plasmid containing the complete DPD cDNA; assay: Real time PCR signal intensity, FRET-HybProbe formate; type: biochemical; details: 0,1 g/μl compound
Description: For this experiment, the primer mix according to example 3 was used. Various amounts of plasmid containing the complete DPD cDNA ranging from 0,4 to 40 fg were amplified with the primer mix by means of PCR under the conditions of example 3 in the presence or absence of […] compound III according to example 2.
For Real Time PCR detection, FRET-hybridization probes from the LightCycler Dihydropyrimidin-Dehydrogenase (DPD) mRNA quantification kit (Roche Molecular Biochemicals, cat. No. 3136957) were used in concentrations according to the manufacturer's instructions.

[2] = system: PCR amplification mixture; assay: Hot start effect when added to a PCR amplification mixture; type: biochemical

O=C(O)C1=C/C(=C(/c2ccc(O)c(C(=O)O)c2)c2cc(Cc3ccc(O)c(C(=O)O)c3)c(O)c(C(=O)O)c2)C=CC1=O [Compound I]
specific amplification signal (FIG. 3a) ([1]; 0,4 fg template DNA): can only be obtained in presence of the additive | specific signaling, cycle number of detection (FIG. 3b,c) ([1]; higher template concentrations (4 fg, 40 fg)): detected at earlier cycle numbers | hot start effect [2]: extensive hot start effect
